Test results reported in patent US7365050B2, “Methods for modulating a drug-related effect or behavior” (The Regents of the University of California, priority 2003, dated 2008).
Where two headings read alike, the source gives them in different places.

Tests used:
[1] = tested on: Cav2.2 null mice and wild-type littermates
Method: Both groups of mice were injected intraperitoneally with ethanol (3.6 g/kg in 0.9% w/v saline) and then assessed for loss of the righting reflex (LORR). Loss of the righting reflex was defined as a mouse being unable to right itself 3 times within 30 sec. Upon losing the righting reflex, mice were placed on their backs and the time taken for them to regain the righting reflex was measured. A mouse was defined as having regained the righting reflex when it was able to right itself 3 times within 30 sec. A blood sample was taken from the tail of each mouse when it regained the righting reflex in order to determine blood ethanol concentration. Blood was centrifuged at 10,000 g and serum blood alcohol concentration determined using an Analox AM-1 analyser (Analox Instruments, Luneburg Mass.). We determined the threshold concentration of ethanol required to induce LORR using the “up-and-down” method (Dixon, 1965; Findlay et al., 2002). […] If the first mouse lost the righting reflex, then the next mouse was given a lower ethanol dose. […] The log dose interval was 0.0138, corresponding to approximately a 0.1 g/kg difference between doses. The ED50 value was determined as described (Findlay et al., 2002), with 95% confidence intervals determined by the following equation: 95% CI=dosing increment×square root of (2/n)×1.96, where n=the last n trials (6) and 1.96 reflects the 0.05 α level (Dixon, 1965).

[2] = tested on: Cav2.2 null mice and littermates; conditions: alcohol vapor 3 days, 16 hours per day; Cav2.2 null vs littermates
Method: Handling-induced convulsions (HIC) were measured at various intervals over the next 48 hours.

N-type calcium channel = N-type calcium channel (Rattus norvegicus, UniProt Q02294); conditions: PC12 cells, 25-200 mM ethanol for 2-8 days; cited from earlier work
N-type calcium channel, sequence (Q02294 whole entry, looked up): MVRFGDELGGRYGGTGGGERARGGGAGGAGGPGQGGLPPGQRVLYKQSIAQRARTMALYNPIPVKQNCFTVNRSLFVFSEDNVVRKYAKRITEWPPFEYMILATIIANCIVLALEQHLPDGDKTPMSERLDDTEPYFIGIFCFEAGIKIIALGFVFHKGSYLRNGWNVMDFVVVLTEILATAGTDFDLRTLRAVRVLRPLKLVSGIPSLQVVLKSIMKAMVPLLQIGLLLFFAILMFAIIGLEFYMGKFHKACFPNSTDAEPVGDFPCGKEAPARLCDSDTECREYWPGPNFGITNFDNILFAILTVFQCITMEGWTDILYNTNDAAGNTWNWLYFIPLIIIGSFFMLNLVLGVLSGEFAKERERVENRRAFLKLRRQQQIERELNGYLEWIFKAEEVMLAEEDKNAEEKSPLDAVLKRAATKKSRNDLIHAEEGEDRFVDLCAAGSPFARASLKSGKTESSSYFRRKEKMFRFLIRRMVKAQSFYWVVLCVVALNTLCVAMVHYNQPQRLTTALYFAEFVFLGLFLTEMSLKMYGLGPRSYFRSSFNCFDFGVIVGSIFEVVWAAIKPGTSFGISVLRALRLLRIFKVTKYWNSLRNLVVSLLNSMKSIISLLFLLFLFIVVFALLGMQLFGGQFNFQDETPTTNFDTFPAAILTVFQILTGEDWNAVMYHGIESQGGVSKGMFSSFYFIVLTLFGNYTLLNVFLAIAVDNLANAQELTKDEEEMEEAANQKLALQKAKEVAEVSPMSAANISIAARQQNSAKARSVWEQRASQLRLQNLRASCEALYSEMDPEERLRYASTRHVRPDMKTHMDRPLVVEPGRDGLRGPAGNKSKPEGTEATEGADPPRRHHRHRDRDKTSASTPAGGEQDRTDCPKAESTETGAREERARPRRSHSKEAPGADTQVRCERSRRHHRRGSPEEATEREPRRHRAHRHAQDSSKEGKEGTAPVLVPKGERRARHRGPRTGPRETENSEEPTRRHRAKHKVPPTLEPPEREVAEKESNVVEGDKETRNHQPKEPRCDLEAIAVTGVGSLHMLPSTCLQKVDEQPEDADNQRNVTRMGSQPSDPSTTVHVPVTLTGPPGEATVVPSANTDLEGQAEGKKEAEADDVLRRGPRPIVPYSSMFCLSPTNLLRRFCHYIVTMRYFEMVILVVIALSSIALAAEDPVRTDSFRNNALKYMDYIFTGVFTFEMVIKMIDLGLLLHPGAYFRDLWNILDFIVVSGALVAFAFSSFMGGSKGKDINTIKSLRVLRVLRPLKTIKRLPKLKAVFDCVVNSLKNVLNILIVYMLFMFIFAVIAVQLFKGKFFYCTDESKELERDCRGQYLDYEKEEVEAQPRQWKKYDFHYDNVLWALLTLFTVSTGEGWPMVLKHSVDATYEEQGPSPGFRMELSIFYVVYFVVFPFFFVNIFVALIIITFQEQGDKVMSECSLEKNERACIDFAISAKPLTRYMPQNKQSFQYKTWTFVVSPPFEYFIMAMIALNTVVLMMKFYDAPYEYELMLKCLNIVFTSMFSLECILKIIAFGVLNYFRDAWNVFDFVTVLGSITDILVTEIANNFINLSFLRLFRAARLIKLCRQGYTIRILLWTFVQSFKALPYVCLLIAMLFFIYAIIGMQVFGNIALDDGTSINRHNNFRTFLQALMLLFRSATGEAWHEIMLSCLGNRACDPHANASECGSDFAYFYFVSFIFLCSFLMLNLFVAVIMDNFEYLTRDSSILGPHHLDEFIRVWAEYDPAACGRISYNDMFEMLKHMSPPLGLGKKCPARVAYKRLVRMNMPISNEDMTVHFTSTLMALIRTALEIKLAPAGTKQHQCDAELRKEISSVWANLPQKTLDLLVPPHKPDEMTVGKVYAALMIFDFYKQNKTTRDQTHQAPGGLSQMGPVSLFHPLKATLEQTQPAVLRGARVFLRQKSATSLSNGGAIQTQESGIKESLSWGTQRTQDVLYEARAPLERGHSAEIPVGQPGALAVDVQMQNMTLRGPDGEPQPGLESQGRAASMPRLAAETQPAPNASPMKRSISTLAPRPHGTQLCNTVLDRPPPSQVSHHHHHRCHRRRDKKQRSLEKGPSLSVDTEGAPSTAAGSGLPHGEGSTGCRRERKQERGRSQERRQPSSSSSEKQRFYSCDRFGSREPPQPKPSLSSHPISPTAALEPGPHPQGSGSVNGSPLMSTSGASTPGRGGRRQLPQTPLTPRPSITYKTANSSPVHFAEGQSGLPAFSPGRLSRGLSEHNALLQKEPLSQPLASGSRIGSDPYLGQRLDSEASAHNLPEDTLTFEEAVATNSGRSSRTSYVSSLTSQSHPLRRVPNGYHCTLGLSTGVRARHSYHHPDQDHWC

[3] = tested on: Cav2.2 null mice and wild-type littermates; remark: listed apart in the source
Method: The conditioned taste aversion study was carried out according to established protocols ([…] and Boyce, 2002) (Chester et al., 2003). Animals were singly housed and acclimatized to limited water access by allowing them access to water for decreasing periods of time (10, 8, 6 and 4 h per day on subsequent days) followed by 2-h daily access for one week. Following acclimatization, they were placed on the conditioning schedule consisting of 1-h access (13:00 to 14:00h) to the conditioned stimulus (CS, a solution of 1.2% (w/v) saline), followed immediately by a saline (0.9% w/v) injection. […] The following day they were allowed two hours of access to drinking water (13:00 to 15:00). This 2-d procedure constituted a single trial and was repeated 7 times to establish baseline consumption levels of 1.2% NaCl. […] Data were compared by two-way ANOVA with factors for injection and genotype.

[4] = tested on: Cav2.2 null mice and wild-type mice
Method: See Example 2. Mice were injected intraperitoneally with saline and placed in the central, access chamber of a three-chambered apparatus. The door to a second chamber (saline-paired chamber), off the central chamber, was then opened to allow mice access to the second chamber, into which the mice entered. The door was then closed and the mice remained in the second chamber for 5 min before being removed and returned to the home cage. On the following day, the procedure was repeated, except that the mice were given an intraperitoneal injection of ethanol (at the doses indicated in FIG. 2) and allowed to enter, by the same procedure as for the saline-paired side, a third chamber (drug-paired chamber), instead of the saline-paired chamber. The ethanol and saline-paired chambers differed in floor texture and wall color. Drug-paired and saline-paired chambers were assigned randomly, i.e., some mice received ethanol in the same type of chamber in which other mice received saline. This process, saline one day and ethanol the next, was then repeated three times further, resulting in a total of four saline/drug-chamber pairings. On the day immediately following the completion of this 8-day training period, the mice were placed into the central chamber and allowed free access to all three chambers for a total of 30 minutes. Time spent in each of the three chambers was analyzed for each genotype by paired two-tailed t-tests with Bonferroni correction for multiple comparisons. […] To control for a baseline preference for a particular chamber type, all mice received a 30-min test in the chambers prior to training.
Mice were trained in a conditioned place preference (CPP) apparatus (Med Associates, St. Albans, Vt.) that consisted of white and black chambers with different floor textures (black side with rod floor vs. white side with grid floor) that were separated by a central gray access compartment. To measure baseline preference for the test chambers, mice were allowed to roam freely in the entire apparatus for 30 min during the first day of the test. […] The ethanol-paired chamber was assigned randomly across subjects. For conditioning, mice were treated with ethanol (1.2, 2.0, or 2.8 grams/kg v/v in 0.9% saline) and immediately placed in one side for 5 min. On the next day, they were injected with an equivalent volume of saline and placed in the other side. This sequence was repeated four times for a total of 4 days ethanol and 4 days saline, with two rest days halfway through training. On the test day immediately following the final training day, mice were allowed free access to all 3 compartments for 30 min. CPP was assessed by comparing the time spent in the drug-paired chamber on the test day with the time spent in the saline-paired chamber and the central chamber on the test day by paired two-tailed t-tests with Bonferroni correction for multiple comparisons. The mice were considered to have developed CPP for ethanol if they spent more time in the ethanol-paired chamber compared with the other two chambers on the test day.

[5] = tested on: Cav2.2 null mice and wild-type littermates; conditions: solutions containing 6% or 10% ethanol
[6] = 4 g/kg ethanol i.p., Cav2.2 null vs wild-type
[7] = tested on: Cav2.2 null mice and wild-type littermates; conditions: 2 g/kg ethanol i.p., Cav2.2 null vs wild-type
Method: Mice were trained to remain for 180 s on a rotarod apparatus (Ugo Basile Biological Research, Varese, Italy) rotating at a fixed rate of 20 rpm. The first test session was carried out the following day. During a test session, each mouse was placed on the rotarod and the time taken for the animal to fall off the rod was recorded. Mice were then injected intraperitoneally with ethanol and re-tested every 15 min for 1 h. […] Three further days later, the mice were trained to remain on an accelerating (4-40 rpm) rotarod for 300s.

SMILES: CCO [ethanol]
- blood ethanol concentration at regaining righting reflex, Cav2.2 null vs wild-type ([1]; 3.6 g/kg ethanol i.p.): higher blood ethanol concentration
- decrease in duration of ethanol-induced LORR, Cav2.2 null vs wild-type ([1]; 3.6 g/kg ethanol i.p.): 70%
- increase in threshold ethanol dose that induces LORR, Cav2.2 null vs wild-type ([1]; 10% v/v ethanol i.p., up-and-down method): 16%
- duration of ethanol-induced LORR ([1]; inbred 129/SvJae background, Cav2.2 null vs wild-type): decreased duration
- handling-induced convulsions during alcohol withdrawal [2]: increased handling-induced convulsions
- binding sites for 125I-ω-conotoxin GVIA (N-type calcium channel): reversible time- and concentration-dependent increase
- conditioned taste aversion to 1.2% NaCl ([3]; 2 g/kg ethanol injection, both genotypes): both genotypes rapidly developed conditioned taste aversion
- magnitude of conditioned taste aversion ([3]; 2 g/kg ethanol, Cav2.2 null vs wild-type): reduced
- conditioned place preference ([4]; Cav2.2 null mice, 2 g/kg ethanol): completely absent
- conditioned place preference ([4]; both genotypes, 1.2 g/kg and 2.8 g/kg ethanol): Neither genotype showed place preference or aversion
- conditioned place preference ([4]; inbred 129/SvJae background, Cav2.2 null): no conditioned place preference
- conditioned place preference ([4]; inbred 129/SvJae background, wild-type, ethanol 1.5 g/kg): significant conditioned place preference
- conditioned place preference ([4]; wild-type mice, 2 g/kg ethanol): robust place preference
- alcohol consumption, Cav2.2 null mice less than wild-type littermates [5]: about 30%
- clearance of ethanol from the blood [6]: no difference between the genotypes
- latency to fall, accelerating (4-40 rpm) rotarod [7]: shorter latency to fall
